Reference: US20090258836A1, “EFFECTIVE DELIVERY OF CROSS-SPECIES A3 ADENOSINE-RECEPTOR ANTAGONISTS TO REDUCE INTRAOCULAR PRESSURE” (The Trustees of The University of Pennsylvania, priority 2006, published 2009)
“Also recorded” adds a separate entry of the source.

Legend:
cultured human NPE cells = details: cited from earlier work
[1] = test system: HCE (human ciliary epithelial) cell line, NPE cells; details: Civan et al.; read-out: EC50 of isosmotic shrinkage of cultured human NPE cells; cited from earlier work
mouse IOP [2] = assay: Mouse IOP after topical application, invasive servo-null micropipette system (SNMS); type: in vivo, Black Swiss mice; details: for Δ(IOP) Servo-Null: endpoint 10 min
Experimental: (§1) The test animals were black Swiss outbred mice of mixed sex, 7-9 weeks old and 25-30 g in weight, obtained from Taconic Inc. (Germantown, N.Y.), and maintained under 12:12-h light/dark illumination cycle and allowed unrestricted access to food and water. Mice were anesthetized with intraperitoneal ketamine ([…]) supplemented by topical proparacaine HCl 0.5% (Allergan, Bausch & Lomb) for the IOP measurements. IOP was measured invasively (SNMS) and non-invasively by pneumotonometry in separate animals.
By the SNMS approach (Avila et al., supra, 2001), the exploring micropipette, of […] outer diameter, was filled with a highly conducting solution and advanced across the cornea into the anterior chamber. A refined technique by Wang et al., Invest. Opthalmol. Vis. Sci. (serial online) (Aug. 31, 2006) available at www.iovs.org/egi/letters/46/9/3274#422, enhanced stability and reduce the background noise of the records, permitting fabrication of micropipettes whose resistance is 0.1-0.3 MΩ, rather than the 0.25-0.4 MΩ used initially. The filling solution was reduced from 3M KCl to 2M NaCl, rather than 3 M KCl. The resistance of the filled micropipette was balanced in a bridge circuit, and the tip was then advanced across the cornea. Upon entering the anterior chamber of the eye, the IOP forces the much lower-conducting aqueous humor into the micropipette tip, displacing the original filling solution. The micropipette resistance was thereby increased, unbalancing the bridge circuit and triggering a bellows to provide a counter-pressure, restoring the position of the filling solution and returning the resistance to its initial value. Thus, the value of the counter-pressure equals the IOP. As in the past (Avila et al., supra, 2001), the stability of the records permitted continuous measurements for tens of minutes during the course of drug applications.
(§2) Ketamine HCl was purchased from Phoenix Pharmaceutical Inc. (St. Joseph, Mo.). Other drugs were obtained from Sigma Chemical (St. Louis, Mo.). Drugs were applied topically with an Eppendorf pipette. […] The final droplet solution contained the drugs at the stated concentrations together with <2% DMSO and 0.0005% benzalkonium chloride at an osmolality of 295-300 mOsm. DMSO was omitted, altogether, from droplets containing the hydrophilic compounds adenosine, carbachol and carboxyfluorescein.
(§3) Effects on invasively-measured IOP were measured 10 min after topical application because after this time, the continued presence of the micropipette can be associated with a downward drift of the IOP, even under control conditions. In contrast, smaller droplets ([…]) were applied to the eye more frequently (three times instead of once) with the non-invasive technique, in order to forestall drying of the eye associated with the airflow from the pneumotonometer. With the non-invasive protocol, the IOP was stable for 30 min under control conditions.
In Table 1, an endpoint of 10 minutes was used for the invasive measurements in light of the above-discussed downward drift of the IOP, even under control conditions. Also the need for smaller, more frequent droplets are discussed above with regard to the non-invasive technique using the pneumotonometer. As above, with the non-invasive protocol, the IOP was stable for 30 minutes under control conditions.

mouse IOP [3] = assay: Mouse IOP after topical application, non-invasive pneumotonometry; type: in vivo, Black Swiss mice; details: for Δ(IOP) Pneumotonometer: 30 min
Experimental: as §1
By comparison, IOP was measured non-invasively by pneumotonometry (OBT) (Avila et al., supra, 2005). As previously described, the commercially available tip of the ocular blood tomography (OBT) pneumotonometer (Blood Flow Analyzer [BFA] probe tip; Paradigm Medical Industries Inc.) was fit to a custom-built mount. Air flow from a constant pressure source was passed through the mount to reach a diaphragm forming the end of the BFA tip. The flow of air displaces the diaphragm outward, permitting escape of the air through holes in the wall of the probe tip into the atmosphere. Pressure was monitored with a transducer connected through a T-connection to the base of the BFA tip. The probe assembly was advanced to the cornea with a three-axis micromanipulator. The probe tip was advanced sufficiently to make contact with the tear film, as was indicated by a shift in the baseline output reading. In a refined method, the tip was withdrawn until the […] was visually displaced from the tear film. The output was then adjusted to zero before advancing the tip again. Contact with the cornea depresses the diaphragm of the BFA tip, occluding access of the air flow to the escape holes and raising the pressure at the base of the tip.
This approach was simplified to expedite identification of the endpoint, and the probe was subsequently advanced in about 10 standardized steps of approximately […] at intervals of about 10 seconds to identify the inflection region (Wang et al., supra, 2006). […] The pneumotonometric estimates of IOP were previously found to agree with manometric measurements in cannulated preparations and with estimates obtained by the servo-null technique (Avila et al., supra, 2005). Having established the baseline value of IOP, the position along the axis of advance of the micromanipulator was noted, and the probe was retracted from contact with the cornea. Subsequent measurements of IOP at later time points were obtained by advancing the probe tip to the same position, with the placement of the mouse maintained stereotactically. The measurements were conducted at 10-min intervals to avoid potential artifacts associated with prolonged pressure on the cornea.
as §2, §3
In Table 1, an endpoint of 10 minutes was used for the invasive measurements in light of the above-discussed downward drift of the IOP, even under control conditions. […]

human A1 receptors = target: T1, human A1 receptors (Homo sapiens, UniProt P30542); details: literature; read-out: Ki for the binding to human A1 receptors; cited from earlier work
T1 sequence (P30542 1-326): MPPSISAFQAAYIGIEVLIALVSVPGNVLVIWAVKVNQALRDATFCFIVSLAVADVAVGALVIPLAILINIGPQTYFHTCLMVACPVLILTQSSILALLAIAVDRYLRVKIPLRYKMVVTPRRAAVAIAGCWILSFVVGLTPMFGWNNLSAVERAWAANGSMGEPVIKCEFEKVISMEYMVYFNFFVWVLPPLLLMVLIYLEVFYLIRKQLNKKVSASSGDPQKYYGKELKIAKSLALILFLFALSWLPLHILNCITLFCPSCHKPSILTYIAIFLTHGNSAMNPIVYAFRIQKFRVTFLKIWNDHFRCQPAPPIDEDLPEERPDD

human A2A receptors = human A2A receptors (Homo sapiens, UniProt P29274); details: literature; read-out: Ki for the binding to human A2A receptors; cited from earlier work
Sequence of human A2A receptors (P29274 whole entry): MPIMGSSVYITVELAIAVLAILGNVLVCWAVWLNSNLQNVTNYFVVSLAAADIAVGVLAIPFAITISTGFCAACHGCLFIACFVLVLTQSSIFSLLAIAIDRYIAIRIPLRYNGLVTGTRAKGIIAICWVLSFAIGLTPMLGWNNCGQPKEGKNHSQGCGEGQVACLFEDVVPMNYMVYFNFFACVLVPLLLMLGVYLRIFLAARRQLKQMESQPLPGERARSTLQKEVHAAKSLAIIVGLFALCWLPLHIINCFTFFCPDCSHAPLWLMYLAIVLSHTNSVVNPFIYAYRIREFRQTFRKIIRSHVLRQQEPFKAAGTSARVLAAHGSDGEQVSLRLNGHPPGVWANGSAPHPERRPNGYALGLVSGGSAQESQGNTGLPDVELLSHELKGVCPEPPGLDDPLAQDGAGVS

human A3 receptors = target: T2, human A3 receptors (Homo sapiens, UniProt P0DMS8); details: literature; read-out: Ki for the binding to human A3 receptors; cited from earlier work
T2 sequence (P0DMS8 1-318): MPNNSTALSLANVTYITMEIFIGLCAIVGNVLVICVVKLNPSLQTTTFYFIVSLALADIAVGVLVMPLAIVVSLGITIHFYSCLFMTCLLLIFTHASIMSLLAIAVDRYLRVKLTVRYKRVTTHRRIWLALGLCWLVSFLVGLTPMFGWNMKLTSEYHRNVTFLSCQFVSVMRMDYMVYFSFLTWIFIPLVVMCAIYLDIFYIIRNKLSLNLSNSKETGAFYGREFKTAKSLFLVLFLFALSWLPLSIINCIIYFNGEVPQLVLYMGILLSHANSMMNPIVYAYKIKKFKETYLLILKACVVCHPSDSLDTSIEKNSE

[4] = test system: HCE (human ciliary epithelial) cell line, NPE cells; assay: Cell volume in isosmotic solution (isosmotic shrinkage), Coulter Counter; type: cell-based; details: 10 μM adenosine; 2 min preincubation with 300 nM MRS-1097, 100 nM MRS-1191 or 100 nM MRS-1523
Experimental: Cell Culture The HCE (human ciliary epithelial) cell line (Carre et al., supra, 1997) is an immortalized NPE cell line obtained from primary cultures of adult human epithelium. […] Eye Res. 57:3057-3063 (1993); Yantorno et al., Exp. Eye Res. 49:423-437 (1989)). […] Cells were passaged every 6-7 days and were studied 8-13 days after passage, after reaching confluence. An immortalized PE-cell line from a primary culture of bovine pigmented ciliary epithelium were also grown under matching conditions. Measurement of Cell Volume in Isosmotic Solution: The volume of PE and NPE cells was measured, since the movement of fluid underlies a change in PE and NPE cell volume, respectively. This is also thought to be the same as the movement of fluid which underlines the secretion of aqueous humor (FIG. 1). […] Parallel aliquots of cells were studied on the same day. One aliquot usually served as a control, and the others were exposed to different experimental conditions at the time of suspension. The same amount of solvent vehicle (dimethylformamide, DMSO or ethanol) was always added to the control and experimental aliquots. […] Cell volumes of isosmotic suspensions were measured with a Coulter Counter (model ZBI-Channelyzer II), using a 100 μm aperture (Civan et al., supra, 1994). As previously described (Wax et al., supra, 1993), the cell volume (vC) of the suspension was taken as the peak of the distribution function. Cell shrinkage was fit as a function of time (t) to a monoexpenential function: […]^0^)/τ] {1) where v∞ is the steady-state cell volume, v0 is the cell volume at the first point (t0) of the time course to be fit, and τ is the time constant of the shrinkage. For purposes of data reduction, the data were normalized to the first time point, taken to be 100% isotonic volume. Fits were obtained by nonlinear least-squares regression analysis, permitting both v∞ and τ to be variables. […] Med. Chem. 37:636-646 (1994; Jacobson et al., supra, 1995; Jacobson et al., FEBS Lett. 336:57-60 (1993)).

[5] = target: T3, human A2B adenosine receptor (Homo sapiens, UniProt P29275); assay: Potency at human A2B adenosine receptor; type: binding; details: at 10 μM
T3 construct: expressed in transfected cells; host or cells: CHO cells (stably transfected)
T3 sequence (P29275 1-332): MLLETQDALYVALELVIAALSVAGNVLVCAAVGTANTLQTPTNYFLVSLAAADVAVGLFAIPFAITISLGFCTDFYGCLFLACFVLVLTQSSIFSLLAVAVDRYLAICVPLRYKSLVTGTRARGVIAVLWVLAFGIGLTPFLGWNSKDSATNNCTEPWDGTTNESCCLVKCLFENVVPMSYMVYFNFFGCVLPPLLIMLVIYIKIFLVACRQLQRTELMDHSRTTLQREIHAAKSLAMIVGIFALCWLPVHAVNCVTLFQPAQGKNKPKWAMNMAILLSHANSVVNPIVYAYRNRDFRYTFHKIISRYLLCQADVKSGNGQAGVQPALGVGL

rat A3 receptors = target: T4, rat A3 receptors (Rattus norvegicus, UniProt P28647); assay: Radioligand binding, [125I]AB-MECA, CHO cells; details: means±SEM, N=3-4
T4 construct: expressed in transfected cells; host or cells: CHO cells (stably transfected)
T4 sequence (P28647 1-320): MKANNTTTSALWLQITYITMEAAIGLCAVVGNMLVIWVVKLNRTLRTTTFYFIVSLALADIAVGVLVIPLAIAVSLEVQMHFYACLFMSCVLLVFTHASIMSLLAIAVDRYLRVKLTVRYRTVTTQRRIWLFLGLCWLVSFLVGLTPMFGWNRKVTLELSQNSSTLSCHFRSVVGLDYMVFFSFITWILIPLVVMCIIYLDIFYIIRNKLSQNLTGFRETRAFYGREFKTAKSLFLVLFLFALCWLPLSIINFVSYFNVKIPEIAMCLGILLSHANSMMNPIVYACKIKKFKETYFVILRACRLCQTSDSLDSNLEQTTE

[6] = Dye penetration into the anterior chamber with or without corneal impalement; type: in vivo, mouse; details: 0.003% droplet, 5 min, impaled eyes
Experimental: Whether drug penetration into the eye was influenced by corneal impalement by a micropipette was further tested by topically applying a […] containing 0.003% carboxyfluorescein ([…]) to both eyes of two mice. Carboxyfluorescein is a highly polar molecule that crosses the barrier layers of the eye poorly. In each mouse, an exploring micropipette was first advanced into the aqueous humor of one eye while the companion eye was not impaled. After 5 min, the dye was washed out with isotonic saline.

Nc1ncnc2c1ncn2[C@@H]1O[C@H](CO)[C@@H](O)[C@H]1O [Adenosine, adenosine]
time constant (τ) of the adenosine-triggered shrinkage (cultured human NPE cells; 10 μM adenosine without antagonist): 3.8 ± 0.6 min
degree of shrinkage relative to control (cultured human NPE cells; 10 μM): increased the degree of shrinkage several-fold
EC50 [1]: 3000 to 10000 nM
increase in IOP over baseline (mouse IOP [2]; SNMS, after 10 min, adenosine 10 mM, Cl-IB-MECA 200 nM droplet): 24.0±4.7 mmHg
Δ(IOP) Servo-Null (mouse IOP [2]; topical droplet 10 mM): +22.4 ± 6.5 mm Hg
delay of the increase in IOP when measured non-invasively (mouse IOP [3]; topical): about 10 minutes
Δ(IOP) Pneumotonometer (mouse IOP [3]; topical droplets 10 mM): +4.8 ± 1.7 mm Hg

CCCOC(=O)c1c(-c2ccccc2)nc(CC)c(C(=O)SCC)c1CCC [MRS-1523]
Ki (human A1 receptors): 15600 nM
Ki (human A2A receptors): 2050 nM
Ki (human A3 receptors): 19 nM
effect on IOP in the mouse (in words) (mouse IOP [2]; tested by the inventors, technique not given): found to lower IOP in the mouse
effect of A3 antagonist on adenosine-stimulated isotonic shrinkage of NPE cells [4]: prevented the characteristic shrinkage; also recorded: blocked the shrinkage; also recorded: eliminated the actions of adenosine

OC1CSC(n2cnc3c(NCc4cccc(I)c4)nc(Cl)nc32)C1O (centres unmarked) [MRS-3820, 2-(2-chloro-6-(3-iodobenzylamino)-9H-purin-9-yl)tetrahydrothiophene-3,4-diol]
potency at A2B [5]: < 10%
Δ(IOP) Servo-Null (mouse IOP [2]; topical droplet 5 μM (0.2% DMSO)): −2.2 ± 0.7 mm Hg
Δ(IOP) Servo-Null (mouse IOP [2]; topical droplet 25 μM (0.2% DMSO)): −4.9 ± 1.7 mm Hg
Δ(IOP) Servo-Null (mouse IOP [2]; topical droplet 75 μM (0.6% DMSO)): −3.1 ± 1.4 mm Hg
Δ(IOP) Servo-Null (mouse IOP [2]; topical droplet 250 μM (2% DMSO)): −1.5 ± 0.6 mm Hg
time to significant reduction of non-invasively measured IOP (mouse IOP [3]; 250 μM droplet): ≤ 20 min
reduction in IOP 30 minutes post-administration (mouse IOP [3]; 250 μM droplet, normal mice, non-invasive, baseline 16.7±1.1): 4.2±0.7 mmHg
reduction in IOP 20 min following application (mouse IOP [3]; 250 μM, non-invasive): 3.4±0.7 mm Hg
Δ(IOP) Pneumotonometer (mouse IOP [3]; topical droplets 25 μM (0.2% DMSO)): −0.6 ± 1.5 mm Hg
Ki (rat A3 receptors): 3.9 ± 1.2 nM

carboxyfluorescein
fluorescence in the anterior chamber [6]: Green fluorescence was observed in the anterior chamber of the impaled mouse eyes
